Data: patent US11672775B2, “Treprostinil prodrugs” (United Therapeutics Corporation, priority 2016, dated 2023)

What was measured:
Sprague Dawley rats [1] = assay: Rat intraplantar injection model, thermal pain sensitivity (Example 9); assay type: in vivo, Sprague Dawley rat; conditions: 1 μg/mL or 100 μg/mL; 15 minutes post-administration
Description: Male Sprague Dawley rats (n=112) were allocated into 14 groups of 8/group. The study was run in 2 cycles, on consecutive days, 7 groups per cycle. Each cycle was composed of a Saline group, PBS group, which served as the control, and also treprostinil at a dose of 100 μg/mL or 1 μg/mL.
(§1) Animals were administered 0.1 mL of test material by subcutaneous injection into the paw pad (Intraplantar injection) at time zero. Animals were subsequently evaluated for their response to mechanical (von Frey filaments) and thermal stimuli, 15 and 90 minutes post-injection. The von Frey test was conducted prior to the thermal test, which followed immediately within minutes for each animal. In addition, clinical observation scoring of the animal's reaction to injection was conducted. FIG. 16 schematically illustrates the study design.
(§2) The sensitivity of animals to a thermal pain stimulus was assessed immediately following the von Frey test. The time until withdrawal of the right-injected leg from a heat source was measured, and the lower (faster) the time of response represents a greater sensitivity to the stimulus. The test was performed 15 and 90 minutes post-Test Item injection.

Sprague Dawley rats [2] = assay: Rat intraplantar injection model, thermal pain sensitivity (Example 10); assay type: in vivo, Sprague Dawley rat
Description: Male Sprague Dawley rats (n=56) were allocated into 7 groups of 8 animals per group. […] Each group was compared to the phosphate buffer (50-mM phosphate buffer with 50-mM sodium chloride at pH=7.4) treated group, which served as the control (Group 1).
as §1, with “zero. Then, the animals” for “zero. Animals”, “conducted.” for “conducted. FIG. 16 schematically illustrates the study design.”
as §2, with “post-test item” for “post-Test Item”

Sprague Dawley rats [3] = assay: Clinical observations following subcutaneous injection (Example 12); assay type: in vivo, Sprague Dawley rat; conditions: 0.1 and 0.3 mg/kg SC; some animals; approximately 4 hours postdosing
Description: Clinical observations were performed at approximately 6 hours prior to dosing, at the completion of dosing and at approximately 4 hours postdosing.

rat = assay: Rat intraplantar injection model, mean clinical score (Example 11); conditions: each of 15 min and 90 min
Description: FIG. 31 presents mean clinical score of cycle 1 (points). Increased/Higher score indicates more observations of adverse events.
FIG. 32 presents mean clinical score of cycle 2 (points). Increased/Higher score indicates more observations of adverse events.
FIGS. 31 and 32 present mean clinical score for Cycles 1 and 2 respectively.

EP2 receptor [4] = target: T1, EP2 receptor (Homo sapiens, UniProt P43116); assay: cAMP assay (HTRF cAMP HiRange Kit), agonist mode, Example 4; assay type: cell-based; conditions: Table 2; HEK293T cells; read-out: Receptor activity EC50, EP receptor
T1 construct: expressed in transfected cells
T1 sequence (P43116 whole entry): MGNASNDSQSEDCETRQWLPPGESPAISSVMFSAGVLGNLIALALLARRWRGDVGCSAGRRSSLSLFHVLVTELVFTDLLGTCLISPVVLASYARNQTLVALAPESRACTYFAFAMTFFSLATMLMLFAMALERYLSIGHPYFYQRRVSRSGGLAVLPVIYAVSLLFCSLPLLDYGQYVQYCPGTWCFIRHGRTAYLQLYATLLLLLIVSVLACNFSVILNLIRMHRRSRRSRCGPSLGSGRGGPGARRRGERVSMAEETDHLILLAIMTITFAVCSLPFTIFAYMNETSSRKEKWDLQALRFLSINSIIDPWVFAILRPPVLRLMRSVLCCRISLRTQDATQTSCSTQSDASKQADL
Description: Materials. […] Cyclic AMP assay kit: HTRF cAMP HiRange Kit (CisBio, Cat #62AM6PEC). Cyclic AMP (cAMP) Assay: cAMP assays were performed according to the manufacturer's protocol using CisBio's HTRF cAMP HiRange Kit. […] The reaction was terminated by sequentially adding D2-labeled cAMP and cryptate-labeled anti-cAMP antibody in lysis buffer. […] Data in graphs are represented in Mean±SD. Dose-dependent responses were fitted with sigmoidal dose-response curves allowing variable slopes using GraphPad Prism versions 4, 5 or 6 (Graphpad Prism).

EP2 receptor [5] = target: T1, EP2 receptor; assay: cAMP assay (TR-FRET or HTRF kit, forskolin), Examples 5 and 6; assay type: cell-based; conditions: Table 3 (Example 5); read-out: EC50, EP receptor
Description: (§3) [table] Prodrug XV (for structure see FIG. 10) as well as treprostinil were tested for 3 G-protein-coupled receptors (GPCRs), namely DP1, EP2, and IP, using cyclic adenosine monophosphate (cAMP) assay. Cyclic AMP assay kits: Multiscreen™ TR-FRET cAMP 1.0 No Wash Assay Kit (Multispan, Inc., Cat #MSCM01-25) and HTRF cAMP HiRange Kit (CisBio, Cat #62AM6PEC). Instruments: FlexStation III (Molecular Devices). Cyclic AMP (cAMP) Assay: cAMP assays were performed according to the manufacturer's protocol using Multiscreen™ TR-FRET cAMP 1.0 No Wash Assay Kit or HTRF cAMP HiRange Kit. […] The reaction was terminated by sequentially adding sequentially adding trFluor™ Eu-labeled cAMP and trFluor™ 650-labeled anti-cAMP antibody or D2-labeled cAMP and cryptate-labeled anti-cAMP antibody in lysis buffer. The plate was then incubated at room temperature for 60 minutes before reading fluorescent emissions at 620 nm and 665 or 668 nm with excitation at 314 nm on FlexStation III (Molecular Devices). Cyclic AMP (cAMP) assays: Cyclic AMP assay results are shown as “Ratio 665/620×10,000” (ratio of fluorescence at 665 nm and 620 nm×10,000) or “Ratio 668/620×10,000” (ratio of fluorescence at 668 nm and 620 nm×10,000). Data in graphs were represented in Mean±SD. Dose-dependent responses were fitted with sigmoidal dose-response curves allowing variable slopes using GraphPad Prism versions 4, 5 or 6 (Graphpad Prism). Treprostinil Prodrug XIV (for structure see FIG. 10) as well as treprostinil were tested for 3 G-protein-coupled receptors (GPCRs), namely DP1, EP2, and IP, using cyclin adenosine monophosphate (cAMP) assay. Cyclic AMP assay kits: Multiscreen™ TR-FRET cAMP 1.0 No Wash Assay Kit (Multispan, Inc., Cat #MSCM01-25) and HTRF cAMP HiRange Kit (CisBio, Cat #62AM6PEC). Cyclic AMP (cAMP) Assay: cAMP assays were performed according to the manufacturer's protocol using Multiscreen™ TR-FRET cAMP 1.0 No Wash Assay Kit or HTRF cAMP HiRange Kit. […] The reaction was terminated by sequentially adding sequentially adding trFluor™ Eu-labeled cAMP and trFluor™ 650-labeled anti-cAMP antibody or D2-labeled cAMP and cryptate-labeled anti-cAMP antibody in lysis buffer. The plate was then incubated at room temperature for 60 minutes before reading fluorescent emissions at 620 nm and 665 or 668 nm with excitation at 314 nm on FlexStation III (Molecular Devices). Cyclic AMP (cAMP) assays: Cyclic AMP assay results are shown as “Ratio 665/620×10,000” (ratio of fluorescence at 665 nm and 620 nm×10,000) or “Ratio 668/620×10,000” (ratio of fluorescence at 668 nm and 620 nm×10,000). Data in graphs were represented in Mean±SD. Dose-dependent responses were fitted with sigmoidal dose-response curves allowing variable slopes using GraphPad Prism versions 4, 5 or 6 (Graphpad Prism).

IP1 receptor = target: T2, IP1 receptor (Homo sapiens, UniProt P43119); assay: as above; assay type: cell-based; conditions: Table 3 (Example 5); read-out: EC50, IP receptor
T2 construct: expressed in transfected cells
T2 sequence (P43119 whole entry): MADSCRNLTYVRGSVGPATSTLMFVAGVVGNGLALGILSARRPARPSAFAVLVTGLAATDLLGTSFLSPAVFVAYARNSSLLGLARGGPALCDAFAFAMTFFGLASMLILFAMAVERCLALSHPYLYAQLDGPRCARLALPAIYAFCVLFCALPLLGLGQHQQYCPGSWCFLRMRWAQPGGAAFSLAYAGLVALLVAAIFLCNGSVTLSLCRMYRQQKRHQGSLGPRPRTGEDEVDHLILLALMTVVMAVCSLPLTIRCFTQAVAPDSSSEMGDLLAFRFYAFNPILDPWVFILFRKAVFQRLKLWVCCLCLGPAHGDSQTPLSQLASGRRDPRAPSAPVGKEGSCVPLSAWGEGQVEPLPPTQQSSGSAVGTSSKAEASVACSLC
Description: as §3

clinical observations (Sprague Dawley rats [3]): flushed extremities
mean clinical score of cycle 2 (rat; 1 μg/mL): non-zero
mean clinical score of cycle 1 (rat; 100 μg/mL): non-zero
EC50 (EP2 receptor [4]): 6750 pM
EC50 (EP2 receptor [5]): 537 pM
EC50 (IP1 receptor): 77.9 pM
SMILES: CCCCC[C@H](O)CC[C@@H]1[C@H]2Cc3cccc(OCC(=O)O)c3C[C@H]2C[C@H]1O [Treprostinil]
thermal paw withdrawal time vs PBS treated group (Sprague Dawley rats [1]): statistically significantly faster paw withdrawal time
thermal paw withdrawal time vs phosphate buffer treated group (Sprague Dawley rats [2]; 1 μg/mL or 100 μg/mL, 15 minutes post-administration): statistically significantly faster paw withdrawal time
sensitivity to heat stimulation vs vehicle (phosphate buffer) group (Sprague Dawley rats [2]; 100 μg/mL, 90 minutes post-injection): statistically significantly increased sensitivity
